A word on the viscosity: it is the resistance of a fluid to flow. In general, speed of sound refers to the propagation velocity of pressure waves in the medium. What is called mass density is mass per unit of volume.

The results in this text go back to the NIST ThermoML archive (doi:10.1016/j.jct.2012.01.022).

Each structure is given as a SMILES string. ± gives the expanded uncertainty stated by the source.

For this series the following is noted: 298.15 K, 101.33 kPa, Liquid; for viscosity: Capillary tube (Ostwald / Ubbelohde) method; for speed of sound: Sing-around technique in a fixed-path interferometer; for mass density: Vibrating tube method.

With `CCCCCCCCCCO` [decan-1-ol], the viscosity stood at 11.19 ± 0.062 mPa·s, the speed of sound amounted to 1379.8 ± 0.9 m/s and the mass density is recorded as 826.47 ± 0.14 kg/m3.

On to `CCCCCCCCO` [octan-1-ol], for which the viscosity is reported as 7.143 ± 0.041 mPa·s, the speed of sound is 1347.5 ± 0.9 m/s and the mass density is given as 821.794 ± 0.14 kg/m3.

Regarding `NCCN` [ethane-1,2-diamine], the viscosity is listed as 1.405 ± 0.012 mPa·s, the speed of sound came to 1671.6 ± 1.3 m/s and the mass density is on record as 892.389 ± 0.23 kg/m3.

As for `CCCCCCO` [hexan-1-ol], the viscosity stood at 4.439 ± 0.042 mPa·s, the speed of sound is 1303.2 ± 1.7 m/s and the mass density was 815.265 ± 0.41 kg/m3.
